± gives the standard deviation of the averaged measurements.
How the values were obtained:
AZD4547 = compound: COc1cc(CCc2cc(NC(=O)c3ccc(N4CC(C)NC(C)C4)cc3)n[nH]2)cc(OC)c1 [AZD4547]; assay: surviving fraction relative to DMSO-only wells; higher = less growth inhibition; conditions: exposure time: 5 days
Method in brief: (§1)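 Log-phase tumour cell lines were seeded at 250–500 cells per well in 384-well plates. After 24 hours they were exposed continuously for five days to inhibitors at 0.5, 1, 5, 10, 50, 100, 500 and 1000 nM. Viability was read by CellTiter-Glo luminescence after 10 minutes at room temperature, and surviving fraction is luminescence normalised to the median of DMSO-only wells. Each line was screened three times and kept only if replicate Pearson r >0.7 and median Z' >0.3.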

METHOTREXATE = compound: CN(Cc1cnc2nc(N)nc(N)c2n1)c1ccc(C(=O)N[C@@H](CCC(=O)O)C(=O)O)cc1 [METHOTREXATE]; assay: as above; conditions: exposure time: 5 days
Method in brief: as §1

Row | Test System | surviving fraction (AZD4547; 0.5 nM) | surviving fraction (AZD4547; 1 nM) | surviving fraction (AZD4547; 5 nM) | surviving fraction (AZD4547; 10 nM) | surviving fraction (AZD4547; 50 nM) | surviving fraction (AZD4547; 100 nM) | surviving fraction (AZD4547; 500 nM) | surviving fraction (AZD4547; 1000 nM) | surviving fraction (METHOTREXATE; 0.5 nM) | surviving fraction (METHOTREXATE; 1 nM) | surviving fraction (METHOTREXATE; 5 nM) | surviving fraction (METHOTREXATE; 10 nM) | surviving fraction (METHOTREXATE; 50 nM) | surviving fraction (METHOTREXATE; 100 nM) | surviving fraction (METHOTREXATE; 500 nM) | surviving fraction (METHOTREXATE; 1000 nM)
1 | MDAMB361 BREAST | 0.908 ± 0.033 | 0.925 ± 0.028 | 1.04 ± 0.12 | 0.972 ± 0.064 | 0.967 ± 0.067 | 0.993 ± 0.061 | 0.851 ± 0.035 | 0.76 ± 0.052 | 0.85 ± 0.13 | 0.853 ± 0.073 | 0.8 ± 0.015 | 0.889 ± 0.062 | 0.947 ± 0.082 | 0.879 ± 0.037 | 0.74 ± 0.045 | 0.735 ± 0.075
2 | MDAMB436 BREAST | 1.05 ± 0.053 | 0.9823 ± 0.0041 | 1.03 ± 0.12 | 0.942 ± 0.08 | 0.978 ± 0.059 | 0.958 ± 0.062 | 1.07 ± 0.023 | 1.02 ± 0.024 | 0.955 ± 0.13 | 0.977 ± 0.091 | 0.963 ± 0.12 | 0.857 ± 0.024 | 0.677 ± 0.096 | 0.609 ± 0.057 | 0.65 ± 0.14 | 0.687 ± 0.083
3 | MDAMB453 BREAST | 1.02 ± 0.074 | 1.094 ± 0.01 | 1.106 ± 0.004 | 1.11 ± 0.056 | 1.1 ± 0.019 | 0.825 ± 0.021 | 0.565 ± 0.021 | 0.585 ± 0.025 | 1.04 ± 0.088 | 1.06 ± 0.025 | 1.12 ± 0.068 | 1.04 ± 0.038 | 0.966 ± 0.024 | 0.757 ± 0.028 | 0.655 ± 0.039 | 0.66 ± 0.018
4 | MDAMB468 BREAST | 1.04 ± 0.11 | 1.02 ± 0.055 | 1.13 ± 0.057 | 1.14 ± 0.062 | 1.02 ± 0.09 | 1.16 ± 0.096 | 1.06 ± 0.019 | 1.14 ± 0.042 | 1.12 ± 0.046 | 1.09 ± 0.072 | 1.11 ± 0.042 | 1.12 ± 0.025 | 0.263 ± 0.015 | 0.083 ± 0.0027 | 0.0627 ± 0.0057 | 0.065 ± 0.001
5 | MFM223 BREAST | 1.02 ± 0.11 | 1.03 ± 0.034 | 0.616 ± 0.056 | 0.374 ± 0.041 | 0.244 ± 0.018 | 0.254 ± 0.015 | 0.298 ± 0.015 | 0.3 ± 0.021 | 1.18 ± 0.11 | 1.3 ± 0.3 | 1.35 ± 0.41 | 1.41 ± 0.43 | 1.09 ± 0.096 | 0.98 ± 0.046 | 1.04 ± 0.035 | 1.01 ± 0.018
6 | MG63 BONE | 0.9447 ± 0.006 | 0.992 ± 0.012 | 0.929 ± 0.033 | 0.879 ± 0.048 | 0.662 ± 0.015 | 0.63 ± 0.041 | 0.576 ± 0.02 | 0.572 ± 0.018 | 1.05 ± 0.051 | 1.07 ± 0.047 | 1.11 ± 0.042 | 1.1 ± 0.052 | 0.364 ± 0.016 | 0.197 ± 0.0027 | 0.178 ± 0.01 | 0.17 ± 0.0082
7 | MHM BONE | 0.961 ± 0.016 | 1 ± 0.006 | 0.995 ± 0.016 | 0.993 ± 0.021 | 0.776 ± 0.014 | 0.694 ± 0.0087 | 0.587 ± 0.0075 | 0.582 ± 0.011 | 1.02 ± 0.036 | 1.04 ± 0.044 | 1.05 ± 0.078 | 1.06 ± 0.038 | 0.784 ± 0.016 | 0.723 ± 0.04 | 0.689 ± 0.019 | 0.699 ± 0.01
8 | NCIH441 LUNG | 0.977 ± 0.026 | 1.09 ± 0.035 | 1.06 ± 0.011 | 1.06 ± 0.066 | 1.01 ± 0.038 | 1.02 ± 0.026 | 0.934 ± 0.17 | 0.929 ± 0.093 | 1.15 ± 0.12 | 1.14 ± 0.099 | 1.12 ± 0.023 | 1.11 ± 0.062 | 1.04 ± 0.12 | 0.882 ± 0.067 | 0.882 ± 0.11 | 0.855 ± 0.1
9 | NOS1 BONE | 0.971 ± 0.12 | 1.07 ± 0.13 | 0.913 ± 0.013 | 0.937 ± 0.064 | 0.87 ± 0.093 | 0.824 ± 0.055 | 0.385 ± 0.025 | 0.187 ± 0.036 | 1.07 ± 0.13 | 1.05 ± 0.12 | 1.16 ± 0.08 | 1.15 ± 0.041 | 1.26 ± 0.25 | 1.4 ± 0.33 | 1.19 ± 0.13 | 1.12 ± 0.06
10 | NY BONE | 0.984 ± 0.052 | 1.03 ± 0.039 | 1.03 ± 0.049 | 0.894 ± 0.02 | 0.466 ± 0.0057 | 0.394 ± 0.019 | 0.359 ± 0.023 | 0.315 ± 0.026 | 0.978 ± 0.015 | 0.993 ± 0.013 | 1.07 ± 0.068 | 0.97 ± 0.037 | 0.56 ± 0.023 | 0.566 ± 0.03 | 0.475 ± 0.026 | 0.42 ± 0.025
11 | OS25HAL BONE | 0.99 ± 0.018 | 1.02 ± 0.02 | 1.037 ± 0.0085 | 1.04 ± 0.012 | 1.02 ± 0.016 | 1.036 ± 0.0095 | 0.948 ± 0.04 | 0.992 ± 0.018 | 0.998 ± 0.041 | 1.01 ± 0.035 | 1.05 ± 0.029 | 0.786 ± 0.031 | 0.357 ± 0.022 | 0.217 ± 0.017 | 0.166 ± 0.0076 | 0.164 ± 0.0066
12 | OSHN BONE | 1.06 ± 0.02 | 1.09 ± 0.044 | 1.09 ± 0.044 | 1.11 ± 0.048 | 1.07 ± 0.023 | 1.1 ± 0.044 | 1.07 ± 0.042 | 1.06 ± 0.011 | 1.12 ± 0.015 | 1.077 ± 0.0067 | 0.197 ± 0.0074 | 0.201 ± 0.0096 | 0.282 ± 0.031 | 0.265 ± 0.0081 | 0.251 ± 0.023 | 0.255 ± 0.031
13 | PCI30 HEADNECK | 0.998 ± 0.026 | 0.966 ± 0.082 | 1.09 ± 0.12 | 1.09 ± 0.094 | 1.16 ± 0.061 | 1.17 ± 0.11 | 1.1 ± 0.012 | 0.999 ± 0.07 | 0.988 ± 0.075 | 1.02 ± 0.062 | 1.11 ± 0.037 | 1.09 ± 0.075 | 1.05 ± 0.055 | 0.96 ± 0.029 | 0.811 ± 0.016 | 0.758 ± 0.071
14 | RDES SOFT TISSUE | 1.28 ± 0.16 | 1.29 ± 0.047 | 1.12 ± 0.084 | 1.1 ± 0.12 | 0.835 ± 0.13 | 0.813 ± 0.14 | 0.961 ± 0.16 | 1.04 ± 0.12 | 1.2 ± 0.1 | 1.26 ± 0.021 | 0.831 ± 0.19 | 0.295 ± 0.015 | 0.055 ± 0.0036 | 0.0457 ± 0.0015 | 0.0463 ± 0.0046 | 0.0447 ± 0.0015
15 | S68 BREAST | 0.981 ± 0.08 | 1.04 ± 0.052 | 1.02 ± 0.25 | 1.1 ± 0.18 | 0.957 ± 0.23 | 1.53 ± 0.1 | 1.05 ± 0.035 | 0.684 ± 0.062 | 0.882 ± 0.3 | 0.879 ± 0.25 | 1.1 ± 0.15 | 1.21 ± 0.29 | 1.07 ± 0.13 | 1.21 ± 0.16 | 1.04 ± 0.18 | 1.17 ± 0.12
16 | SAOS2 BONE | 1.046 ± 0.0017 | 1.077 ± 0.0081 | 1.14 ± 0.031 | 1.17 ± 0.085 | 1.16 ± 0.054 | 1.14 ± 0.051 | 0.92467 ± 0.00058 | 0.649 ± 0.023 | 1.2 ± 0.051 | 1.18 ± 0.037 | 1.25 ± 0.05 | 1.25 ± 0.023 | 1.04 ± 0.031 | 0.841 ± 0.035 | 0.752 ± 0.018 | 0.753 ± 0.028
17 | SCC36 HEADNECK | 0.993 ± 0.053 | 1.07 ± 0.081 | 1.18 ± 0.17 | 1.09 ± 0.21 | 0.988 ± 0.07 | 1.01 ± 0.039 | 0.856 ± 0.029 | 0.687 ± 0.053 | 1.1 ± 0.11 | 1.1 ± 0.042 | 1.15 ± 0.076 | 1.16 ± 0.14 | 0.828 ± 0.022 | 0.731 ± 0.017 | 0.575 ± 0.046 | 0.626 ± 0.082
18 | SCC47 HEADNECK | 0.967 ± 0.14 | 1.02 ± 0.066 | 1.02 ± 0.1 | 1.13 ± 0.069 | 1.08 ± 0.037 | 1.09 ± 0.091 | 1.03 ± 0.078 | 0.961 ± 0.074 | 1.11 ± 0.097 | 1.15 ± 0.098 | 1.06 ± 0.019 | 0.946 ± 0.15 | 0.827 ± 0.04 | 0.814 ± 0.03 | 0.773 ± 0.033 | 0.789 ± 0.019
19 | SCC90 HEADNECK | 1.07 ± 0.095 | 1.06 ± 0.11 | 1.04 ± 0.17 | 1.09 ± 0.14 | 1.08 ± 0.038 | 1.15 ± 0.055 | 1.04 ± 0.043 | 1.1 ± 0.11 | 1.07 ± 0.075 | 1.05 ± 0.11 | 1.07 ± 0.066 | 1.09 ± 0.098 | 0.954 ± 0.015 | 0.852 ± 0.068 | 0.424 ± 0.06 | 0.416 ± 0.031

From the supplement of paper PMC6045584
